From PubChem BioAssay AID1963830 (Molecular Pharmacology Branch, DTP, NCI, 2024)

System: 922993-354-T-J3-PDC complex spheroid viability
Experiment: Anticancer human tumor 922993-354-T-J3-PDC patient-derived endometrial carcinoma cell line growth inhibition [POLQ]
Settings: for IC50: curve of first compound; for viability, T/C: stronger effect = lower value
Experimental: Multicellular complex tumor spheroid response to Polymerase (POL) inhibitors (novobiocin, ART-558, RP6685) in combination with a variety of drugs and investigational agents in selected tumor cell lines
The POL inhibitors (novobiocin, ART-558, and RP6685) were evaluated both individually and in combination with standard of care and investigational anticancer small molecules within a complex spheroid model of solid tumors. . Complex spheroids include a stromal component modeled by human endothelial cells (HUVEC) and fibroblasts modeled by human mesenchymal stem cells (MSCs). The concentration ranges selected for each drug and investigational agent were based upon clinically achievable concentrations if the clinical Cmax of the agent was known.
Compounds. The drugs and investigational agents: novobiocin (NSC847541), ART-558 (NSC835418), RP-6685 (NSC848927), peposertib (NSC802822), ceralasertib (NSC780249), elimusertib (NSC800525), camonsertib (NSC841442), AZD-1390 (NSC803789), olaparib (NSC753686), talazoparib (NSC767125), rucaparib (NSC756644), sotorasib (NSC818433), MRTX-1133 (NSC836407), SN-38 (NSC673596), topotecan (NSC609699), epotoside (NSC141540), doxorubicin (NSC123127), gemcitabine (NSC613327), 5-fluorouracil (NSC19893), paclitaxel (NSC125973), vemurafenib (NSC761431), MSA-2 (NSC828583), SN-011 (NSC837082), adavosertib (NSC754352), prexasertib (NSC758257), carboplatin (NSC241240) and oxaliplatin (NSC266046), were obtained from the National Cancer Institute (NCI) Developmental Therapeutics Program Chemical Repository (21). The FDA-approved anticancer drug set is available from the Developmental Therapeutics Program at https://dtp.cancer.gov/organization/dscb/obtaining/. […] The stock solutions were prepared in dimethyl sulfoxide (DMSO, Sigma-Aldrich, St. Louis, MO, cat. D2650), except for the platinum compounds which were prepared in saline (Quality Biological, Gaithersburg, MD, cat. 114-055-101), at 800-fold the tested concentration and stored at -70 degrees C prior to their use. All drugs and investigational agents were tested over a range starting from a high concentration at or near the clinical Cmax and decreasing in half-log increments. If the clinical Cmax for an agent had not been determined, the highest concentration tested was 10 microM, except for SN-38, which was tested at a high concentration of 1 microM.
Cell Culture. All cells were maintained in an incubator at 37 degrees C and 5% CO2 with 95% humidity. The PDC lines were cultured according to standard operating procedures established by the NCI PDMR (https://pdmr.cancer.gov). Table 3 of the manuscript, lists the cell lines along with the number of the three cell types plated to form the mct-spheroids and media for tumor cell growth. After thawing, all PDC lines, except 997537-175-T-J1-PDC and 415267-285-R-J2-PDC, were cultured in Matrigel-coated flasks prepared with a working solution of 1X Ham's F-12 nutrient mix, without supplementation (Thermo Fisher Scientific, cat. 11765054), 100 U/mL penicillin-streptomycin (Thermo Fisher Scientific, cat. 15140122), and 2.5% Matrigel (Corning Inc., Corning, NY, cat. 354248) for the first three passages. The two PDC lines 997537-175-T-J1-PDC and 415267-285-R-J2-PDC were cultured on uncoated flasks. The 857933-349-R-J2-PDC line was cultured in 6C/Colon 1B media containing advanced DMEM/F-12 (Thermo Fisher Scientific, cat. 12634028), 10 mM HEPES (Thermo Fisher Scientific, cat. 15630080), 1X GlutaMAX supplement (Thermo Fisher Scientific, cat. 35050061), 0.1 mg/mL primocin (InvivoGen, San Diego, CA, cat. ant-pm-2), 10% defined fetal bovine serum, heat inactivated (HyClone Laboratories Inc., Logan, UT, cat. SH30070.03HI), 50% L-WRN conditioned media (ATCC, cat. CRL-3276), 1.25 mM N-Acetyl-L-cysteine (Sigma-Aldrich, cat. A9165), 10 mM nicotinamide (Sigma-Aldrich, cat. N0636), 1X B-27 supplement (Thermo Fisher Scientific, cat. 17504044), 1X N-2 supplement (Thermo Fisher Scientific, cat. […]

[1] = second compound 0.0316 µM, first compound 0.0316 µM
[2] = second compound 0.0316 µM, first compound 0.1 µM
[3] = second compound 0.1 µM, first compound 0.0316 µM
[4] = second compound 0.1 µM, first compound 0.1 µM
[5] = second compound 0.316 µM, first compound 0.0316 µM
[6] = second compound 0.316 µM, first compound 0.1 µM
[7] = second compound 1 µM, first compound 0.0316 µM
[8] = second compound 1 µM, first compound 0.1 µM
[9] = second compound 3.16 µM, first compound 0.0316 µM
[10] = second compound 3.16 µM, first compound 0.1 µM
[11] = second compound 10 µM, first compound 0.0316 µM
[12] = second compound 10 µM, first compound 0.1 µM
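Note: spheroids exposed to the agents for one week.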
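Throughout, for viability, T/C: 100% = DMSO vehicle control wells.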

Compound: Cn1ncnc1[C@H]1c2n[nH]c(=O)c3cc(F)cc(c23)N[C@@H]1c1ccc(F)cc1 + COC1C(OC(N)=O)C(O)C(Oc2ccc3c(O)c(NC(=O)c4ccc(O)c(CC=C(C)C)c4)c(=O)oc3c2C)OC1(C)C
- IC50 (second compound 0.0316 µM): > 0.1 µM
- IC50 (second compound 0.1 µM): > 0.1 µM
- IC50 (second compound 0.316 µM): > 0.1 µM
- IC50 (second compound 1 µM): > 0.1 µM
- IC50 (second compound 3.16 µM): > 0.1 µM
- IC50 (second compound 10 µM): > 0.1 µM
- viability, T/C (second compound 0.0316 µM, first compound 0.000316 µM): 109%
- viability, T/C (second compound 0.0316 µM, first compound 0.001 µM): 93.7%
- viability, T/C (second compound 0.0316 µM, first compound 0.00316 µM): 98.5%
- viability, T/C (second compound 0.0316 µM, first compound 0.01 µM): 104%
- viability, T/C [1]: 91.8%
- viability, T/C [2]: 74%
- viability, T/C (second compound 0.1 µM, first compound 0.000316 µM): 107%
- viability, T/C (second compound 0.1 µM, first compound 0.001 µM): 102%
- viability, T/C (second compound 0.1 µM, first compound 0.00316 µM): 105%
- viability, T/C (second compound 0.1 µM, first compound 0.01 µM): 99.9%
- viability, T/C [3]: 96.8%
- viability, T/C [4]: 79.8%
- viability, T/C (second compound 0.316 µM, first compound 0.000316 µM): 108%
- viability, T/C (second compound 0.316 µM, first compound 0.001 µM): 107%
- viability, T/C (second compound 0.316 µM, first compound 0.00316 µM): 115%
- viability, T/C (second compound 0.316 µM, first compound 0.01 µM): 98%
- viability, T/C [5]: 96.6%
- viability, T/C [6]: 86.1%
- viability, T/C (second compound 1 µM, first compound 0.000316 µM): 105%
- viability, T/C (second compound 1 µM, first compound 0.001 µM): 98.6%
- viability, T/C (second compound 1 µM, first compound 0.00316 µM): 91.7%
- viability, T/C (second compound 1 µM, first compound 0.01 µM): 105%
- viability, T/C [7]: 94.6%
- viability, T/C [8]: 84.5%
- viability, T/C (second compound 3.16 µM, first compound 0.000316 µM): 93.7%
- viability, T/C (second compound 3.16 µM, first compound 0.001 µM): 89.9%
- viability, T/C (second compound 3.16 µM, first compound 0.00316 µM): 89.6%
- viability, T/C (second compound 3.16 µM, first compound 0.01 µM): 86.3%
- viability, T/C [9]: 102%
- viability, T/C [10]: 79.4%
- viability, T/C (second compound 10 µM, first compound 0.000316 µM): 88.6%
- viability, T/C (second compound 10 µM, first compound 0.001 µM): 75.6%
- viability, T/C (second compound 10 µM, first compound 0.00316 µM): 94.7%
- viability, T/C (second compound 10 µM, first compound 0.01 µM): 85.7%
- viability, T/C [11]: 87.1%
- viability, T/C [12]: 70.7%

Compound: CCc1cc2c(N3CCc4c(cc(Cn5ccnc5)cc4-c4cn(C)nc4C(F)(F)F)C3=O)ccnc2c(OC)n1 + COC1C(OC(N)=O)C(O)C(Oc2ccc3c(O)c(NC(=O)c4ccc(O)c(CC=C(C)C)c4)c(=O)oc3c2C)OC1(C)C
- IC50 (second compound 0.0316 µM): > 10 µM
- IC50 (second compound 0.1 µM): > 10 µM
- IC50 (second compound 0.316 µM): > 10 µM
- IC50 (second compound 1 µM): > 10 µM
- IC50 (second compound 3.16 µM): > 10 µM
- IC50 (second compound 10 µM): > 10 µM
- viability, T/C [1]: 104%
- viability, T/C [2]: 110%
- viability, T/C (second compound 0.0316 µM, first compound 0.316 µM): 101%
- viability, T/C (second compound 0.0316 µM, first compound 1 µM): 102%
- viability, T/C (second compound 0.0316 µM, first compound 3.16 µM): 96.2%
- viability, T/C (second compound 0.0316 µM, first compound 10 µM): 71.5%
- viability, T/C [3]: 108%
- viability, T/C [4]: 102%
- viability, T/C (second compound 0.1 µM, first compound 0.316 µM): 97.9%
- viability, T/C (second compound 0.1 µM, first compound 1 µM): 109%
- viability, T/C (second compound 0.1 µM, first compound 3.16 µM): 97.1%
- viability, T/C (second compound 0.1 µM, first compound 10 µM): 79.8%
- viability, T/C [5]: 104%
- viability, T/C [6]: 101%
- viability, T/C (second compound 0.316 µM, first compound 0.316 µM): 102%
- viability, T/C (second compound 0.316 µM, first compound 1 µM): 97.3%
- viability, T/C (second compound 0.316 µM, first compound 3.16 µM): 86.9%
- viability, T/C (second compound 0.316 µM, first compound 10 µM): 79.6%
- viability, T/C [7]: 97.4%
- viability, T/C [8]: 101%
- viability, T/C (second compound 1 µM, first compound 0.316 µM): 104%
- viability, T/C (second compound 1 µM, first compound 1 µM): 101%
- viability, T/C (second compound 1 µM, first compound 3.16 µM): 90%
- viability, T/C (second compound 1 µM, first compound 10 µM): 76.6%
- viability, T/C [9]: 88.1%
- viability, T/C [10]: 96.5%
- viability, T/C (second compound 3.16 µM, first compound 0.316 µM): 100%
- viability, T/C (second compound 3.16 µM, first compound 1 µM): 85.2%
- viability, T/C (second compound 3.16 µM, first compound 3.16 µM): 89.2%
- viability, T/C (second compound 3.16 µM, first compound 10 µM): 70.4%
- viability, T/C [11]: 84%
- viability, T/C [12]: 82.8%
- viability, T/C (second compound 10 µM, first compound 0.316 µM): 105%
- viability, T/C (second compound 10 µM, first compound 1 µM): 91%
- viability, T/C (second compound 10 µM, first compound 3.16 µM): 93.9%
- viability, T/C (second compound 10 µM, first compound 10 µM): 68.3%
